# Measured values published in patent publication US20130336950A1, “MATERIAL COMBINATION FOR TREATING INFLAMMATORY OR INFECTIOUS DISEASES” (priority 2010, published 2013).
# Entries after “also recorded” stand apart in the source; their conditions may differ. Ends that are not written are not given here.
# How the values were obtained:
# [1] = test system: Bifidobacterium adolescentis; test: antimicrobial radial diffusion assay, Bif. adolescentis, with and without DTT; assay type: cell-based; details: for antimicrobial activity (diameter of the inhibition zones): anaerobic, 48 h
# Procedure: (§1) During execution of the assay in 10 mM sodium phosphate with 0.3 mg/ml of trypticase soya broth (TSB) and 1% (w/v) agarose with low EEO (Sigma-Aldrich), incubation took place in anaerobic conditions with antimicrobial peptides and 0-2 mM DTT. The presence of a reducing environment was controlled by adding the redox indicator resazurin. After 48-h incubation, the diameter of the inhibition zones was measured and was evaluated statistically using GraphPad Prism 4.03 and Student's t-test.
# (§2) Small concentrations of the reducing agent dithiothreitol (DTT) were added to the assay medium, whereas medium without DTT served as control.
# Bacteroides vulgatus = test: antimicrobial radial diffusion assay, Bacteroides vulgatus; assay type: cell-based; details: 48 h
# Procedure: as §1, §2
# human thioredoxin = biological target: T1, human thioredoxin (Homo sapiens, UniProt P10599); test: thioredoxin reductase assay (reduction of hBD-1, RP-HPLC); assay type: biochemical; details: 10 μM hBD-1, 0.5-1.5 μM thioredoxin, 100 nM thioredoxin reductase, 0.8 mM NADPH, 30 minutes, 37° C.
# T1 sequence (P10599 1-105): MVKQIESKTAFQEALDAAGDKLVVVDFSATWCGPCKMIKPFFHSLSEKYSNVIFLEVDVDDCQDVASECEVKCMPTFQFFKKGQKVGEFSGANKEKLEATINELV
# Procedure: FIG. 4 Thioredoxin (TRX) co-localized with hBD-1 and is capable of catalyzing the reduction of hBD-1. (A) immuno-histochemistry staining of hBD-1 and thioredoxin of human colon sections. Magnification bars=100 μm. (B) 10 μM oxidized hBD-1 was incubated with or without 0.5, 1.0 and 1.5 μM human thioredoxin and 100 nM rat thioredoxin reductase for 30 minutes at 37° C. in 0.10 M potassium phosphate-2 mM EDTA, pH 7.0 buffer and 0.8 mM NADPH. Incubation assays were analyzed by RP-HPLC and the transformation of oxidized to reduced hBD-1 was observed. hBD-1 ox=oxidized hBD-1, hBD-1 red=reduced hBD-1. […] Formation of inhibition zones was investigated after incubation for 48 hours, representative assays are shown.
# The thioredoxin reductase assay was carried out as follows: For this, oxidized hBD-1 was incubated with 0.5-1.5 μM thioredoxin or protein disulfide-isomerase in the presence of 100 nM thioredoxin reductase and 0.8 mM NADPH in 0.1 M […] phosphate buffer-2 mM EDTA. The incubation mixtures were analyzed by RP-HPLC, with which the transformation of oxidized to reduced hBD-1 peptide could be observed.
# [2] = test system: Bifidobacterium adolescentis Ni3,29c; test: transmission electron microscopy of the bacteria; assay type: cell-based; details: 200 μg/ml, 2 hours, 37° C., anaerobic
# Procedure: For transmission electron microscopy of the bacteria, approx. 2×10^8 CFU (colony forming units) of Bifidobacterium adolescentis Ni3,29c were incubated anaerobically for two hours at 37° C. in the absence or in the presence of 200 μg/ml synthetic defensin. The bacteria were centrifuged, fixed in prewarmed Karnovsky's solution and stored at 4° C. for 24 hours. After centrifugation, the pellet was embedded in 3.5% agarose at 37° C., coagulated at room temperature, cut into small blocks and fixed in Karnovsky's solution again. The post-fixing was based on 1.0% osmium tetroxide with 1.5% potassium ferrocyanide in 0.1 M cacodylate buffer. After embedding in glycidyl ether, the blocks were cut with an ultramicrotome (Ultracut, Reichert, Vienna, Austria). Ultrathin sections (30 nm) were applied on copper grids and analyzed with a Zeiss LIBRA 120 transmission electron microscope (Carl Zeiss, Oberkochen, Germany) at 120 kV.
# [3] = test system: Bifidobacterium adolescentis, Bif. breve, Bif. longum and Bif. bifidum; test: radial diffusion assay, oxidized and reduced peptide against Bifidobacterium spp.; assay type: cell-based; details: oxidized or reduced peptide 1.5 μg, anaerobic, medium without DTT, 48 h
# Procedure: as §1
# (§3) (FIG. 3A). […] Furthermore, the same assay was carried out with the Gram-positive strains Lactobacillus acidophilus and L. fermentum, and with the Gram-negative strain Bacteroides vulgatus and the facultatively anaerobic strain Escherichia coli K12 (FIG. 3B).
# [4] = test system: Lactobacillus acidophilus and L. fermentum; test: radial diffusion assay, Lactobacilli; assay type: cell-based, Lactobacillus spp.; details: oxidized or reduced peptide 3 μg, medium without DTT, 48 h
# Procedure: as §1, §3
# Escherichia coli K12 = test: radial diffusion assay, Escherichia coli K12; assay type: cell-based; details: oxidized or reduced peptide 1.5 μg, medium without DTT, 48 h
# Procedure: as §1, §3
# Candida albicans = test: flow cytometry assay, depolarized yeasts, clinical Candida isolates; assay type: cell-based; details: 40 μg/ml, 90-minute incubation, 5 clinical isolates
# Procedure: (A) 1.5 μg oxidized and reduced hBD-1 was incubated with Bifidobacterium spp., Lactobacillus spp., Bacteroides vulgatus (B) and Escherichia coli. For Lactobacilli, the amount of defensin was 3 μg. The formation of inhibition zones was investigated after 48 hours, representative radial diffusion assays from 3 experiments are shown. […] The proportion of depolarized yeasts after 90-minute incubation with reduced or oxidized hBD-1, measured with a flow cytometry assay, is shown. hBD-1 red=reduced hBD-1, hBD-1 ox=oxidized hBD-1. The mean values+standard deviation of two experiments, carried out in each case in duplicate, are shown, (D) cysteine amino acids in the hBD-1 peptide were exchanged for alanine or serine and the hydrophobicity of the hBD-1 variants was analyzed by RP-HPLC. (E) flow cytometry assay for detecting bacterial membrane depolarization of Bifidobacterium adolescentis after incubation with reduced or oxidized hBD-1. Squares show an incubation time of 30 minutes, circles a time of 90 minutes. […] Fixed bacteria were analyzed by transmission microscopy, magnification bars=200 nm.
# Flow-cytometry antimicrobial assay, in which the membrane depolarization of the bacteria was measured, was carried out as described in: Nuding, S., et al., “Antibacterial activity of human defensins on anaerobic intestinal bacterial species: a major role of HBD-3.” Microbes. […]
# [5] = test system: Bifidobacterium adolescentis; test: flow-cytometry antimicrobial assay, bacterial membrane depolarization; assay type: cell-based
# Procedure: Flow-cytometry antimicrobial assay, in which the membrane depolarization of the bacteria was measured, was carried out as described in: Nuding, S., et al., “Antibacterial activity of human defensins on anaerobic intestinal bacterial species: a major role of HBD-3.” Microbes. Infect. 11 (3), 384-393 (2009).
# In order to investigate whether the observed inhibition of growth of Gram-positive anaerobes is bacteriostatic or bactericidal, flow-cytometry antimicrobial assays were carried out with bacterial membrane depolarization as the reading system. […] This pointed to a rapid bactericidal effect of the linear hBD-1.
# [6] = RP-HPLC analysis of hydrophobicity; assay type: physicochemical; details: water/acetonitrile gradient; reduced hBD-1 vs oxidized hBD-1, variants vs reduced hBD-1
# Excerpt: For the high-performance liquid chromatography (HPLC) analysis, a system of the Agilent 1200 series and a Vydac 218TP-C18 column were used, using a water/acetonitrile gradient with trifluoroacetic acid as ion-pair reagent.
# [7] = reducing conditions (DTT added, 1 mM or 2 mM)
# [8] = with or without DTT (1 mM or 2 mM), 0.5-2.0 μg peptide
# [9] = oxidized or reduced peptide 1.5 μg, medium without DTT
# [10] = 30 minutes of incubation, 60 μg/μl
Substance,antimicrobial activity (diameter of the inhibition zones) ([1]; medium without DTT),"antimicrobial activity (diameter of the inhibition zones) [1, 7]",antimicrobial activity (inhibition zones) (Bacteroides vulgatus; [8]),morphology of the bacterial cells [2],antimicrobial activity (inhibition zones) (Bacteroides vulgatus; [9]),antimicrobial activity (inhibition zones) [3],antimicrobial activity (inhibition zones) [4],antimicrobial activity (inhibition zones) (Escherichia coli K12),antifungal activity (proportion of depolarized yeasts) (Candida albicans),"membrane depolarization of the bacteria [5, 10]",also measured
"hBD-1Δ30-36: shortened variant of hBD-1 without the seven C-terminal amino acids GKAKCCK (SEQ ID No. 1) (DHYNCVSSGGQCLYSACPIFTKIQGTCYR; ends and bridges not checked; cysteine pairing not given here; UniProt P60022 33-61, looked up, fragment)",unable to inhibit the growth,unable to inhibit the growth,–,–,–,–,–,–,–,–,–
"human beta-defensin 1 (DHYNCVSSGGQCLYSACPIFTKIQGTCYRGKAKCCK; disulfide (positions not given here); also: three disulfides, pairing not given here) [hBD-1, synthetic human beta-defensin 1, antimicrobial peptide with three disulfide bridges]",no effect on the growth,antimicrobial activity only through reduction,did not show any antimicrobial activity; also recorded: growth-inhibiting effect was not observed,–,–,–,–,–,–,–,antimicrobial activity compared with hBD-3 ([1]; 2 mM DTT): as effective as hBD-3; antimicrobial activity ([1]; in the presence of 150 mM sodium chloride (data not shown)): disappeared; antimicrobial activity (diameter of the inhibition zones) ([1]; medium with 1 mM DTT): concentration-dependent inhibition zones; transformation of oxidized to reduced hBD-1 (human thioredoxin): reduced by thioredoxin
"human beta-defensin 3 (GIINTLQKYYCRVRGGRCAVLSCLPKEEQIGKCSTRGRKCCRRKK; UniProt P81534 23-67, looked up) [hBD-3, reference compound]",strong antimicrobial activity,slightly reduced antimicrobial activity; also recorded: reduced activity,concentration-dependent inhibition zones,mainly attacks the bacterial membrane,–,–,–,–,–,–,–
lysozyme [reference compound],–,slightly reduced antimicrobial activity,–,–,–,–,–,–,–,–,–
"oxidized hBD-1: fully oxidized hBD-1 possessing all disulfide bridges (DHYNCVSSGGQCLYSACPIFTKIQGTCYRGKAKCCK; disulfide (positions not given here); also: three disulfides, pairing not given here)",–,–,–,did not show morphological damage of any kind,no effect,did not show any antimicrobial activity,no effect at all,antimicrobial activity; also recorded: sensitive,no action and not,no significant depolarization,membrane depolarization of the bacteria ([5]; 90 minutes of incubation): no significant depolarization
"reduced hBD-1: fully reduced, linear hBD-1 with free cysteine residues (DHYNCVSSGGQCLYSACPIFTKIQGTCYRGKAKCCK; Beta-defensin 1 reduced, free cysteines; UniProt P60022 33-68, looked up)",–,–,–,cellular disintegration,no effect,antimicrobial activity against all the strains tested,clear inhibition zones,antimicrobial activity,active against 4 out of 5 clinical Candida isolates; also recorded: effective antifungal activity against four out of five strains,50%,"effectiveness compared with the oxidized form ([5]; flow cytometry, membrane depolarization): more effective; hydrophobicity (RP-HPLC) [6]: more hydrophobic; also recorded: increase in the hydrophobicity"
